Like-named read-outs stand apart in the source and are kept apart here. Values belong to the molecule of their own block, whether it stands above or below them.
Tests used:
[1] = human, in vivo
metastatic melanoma [2] = conditions: cited from earlier work
P-AKT Ser473 [3] = conditions: single-agent, matching biopsies, head and neck cancer patients; cited from earlier work
metastatic melanoma [4] = conditions: temsirolimus; cited from earlier work
P-S6 = conditions: biopsies from treated patients; cited from earlier work
P-AKT Ser473 [5] = conditions: biopsies from treated patients; cited from earlier work

Mean Cmax and Cavg at steady-state on Day 15 compared to Day 1 [1]: 2-4 fold
SMILES: CNC(=O)c1cc(Oc2ccc(NC(=O)Nc3ccc(Cl)c(C(F)(F)F)c3)cc2)ccn1 [Sorafenib]
Clinical response rate (metastatic melanoma [2]; melanoma patients, sorafenib): 3%
Patients who achieved a clinical response (metastatic melanoma [2]; metastatic melanoma patients, sorafenib monotherapy): one of 37

SMILES: CO[C@H]1C[C@@H]2CC[C@@H](C)[C@@](O)(O2)C(=O)C(=O)N2CCCC[C@H]2C(=O)O[C@H]([C@H](C)C[C@@H]2CC[C@@H](OC(=O)C(C)(CO)CO)[C@H](OC)C2)CC(=O)[C@H](C)/C=C(\C)[C@@H](O)[C@@H](OC)C(=O)[C@H](C)C[C@H](C)/C=C/C=C/C=C/1C [Temsirolimus]
Change in P-AKT Ser473 (P-AKT Ser473 [3]): lack of increase
Patients who achieved a clinical response (metastatic melanoma [4]): 1 of 33

SMILES: CO[C@H]1C[C@@H]2CC[C@@H](C)[C@@](O)(O2)C(=O)C(=O)N2CCCC[C@H]2C(=O)O[C@H]([C@H](C)C[C@@H]2CC[C@@H](OCCO)[C@H](OC)C2)CC(=O)[C@H](C)/C=C(\C)[C@@H](O)[C@@H](OC)C(=O)[C@H](C)C[C@H](C)/C=C/C=C/C=C/1C [everolimus]
Change in P-S6 (P-S6): decrease
Change in P-AKT Ser473 (P-AKT Ser473 [5]): increase
